Activity calls are given as the source filed them.
Experiments:
[1] = Luminescence Cell-Based Dose Confirmation HTS to Identify Activators of 5'UTR Stem-Loop Driven Alpha-Synuclein mRNA Translation in H4 Neuroglioblastoma Cells. [Related pubchem assays: 1829 (Project Summary), 1814 (Primary HTS)]; type: functional
[2] = Luminescent dose response cell-based high throughput screening assay for inhibitors of the Janus kinase 2 mutant JAK2V617F. [Related pubchem assays: 1446 (Primary screen.), 1521 (Confirmation assay.), 1486 (Counter screen.)]; type: functional
H4 = assay: Luminescence Cell-Based Dose Response HTS to Identify Activators of 5'UTR Stem-Loop Driven Prion Protein mRNA Translation in H4 Neuroglioblastoma Cells. [Related pubchem assays: 1829 (Project Summary), 1814 (Primary HTS)]; type: functional; conditions: Homo sapiens
[3] = HEK-293T viability loss after treatment – luminescence, T-cell screen hits, cytotoxicity control for TCR NF-kB inhibitor project, dose response (AID 489026); type: functional, cell-based;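 further: cells exposed to compound about 14 hours before the viability readout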
[4] = Luminescence Cell-Based Dose Response HTS to Identify Activators of Luciferase Translation or Activity in H4 […] Cells. [Related pubchem assays: 1829 (Project Summary), 1814 (Primary HTS)]; type: functional
[5] = Luminescence Cell-Based Dose Retest to Confirm Inhibitors of Cancer Stem Cells. [Related pubchem assays (depositor defined):AID2717, AID2721]; type: functional; conditions: Homo sapiens
[6] = Fluorescence-based cell-based high throughput dose response assay for inhibitors of the interaction of nucleotide-binding oligomerization domain containing 2 (NOD2) and the receptor-interacting serine-threonine kinase 2 (RIPK2).; type: functional; conditions: Homo sapiens
Ion channel NompC = Ion channel NompC (Danio rerio, UniProt Q7T1G6); assay: Fluorescence counterscreen assay for TRPML3 agonists: dose response cell-based high-throughput screening assay to identify agonists of the transient receptor potential channel N1 (TRPN1). [Related pubchem assays: 1526, 1424, 1448 ]; type: functional
Mucolipin-3 = target: T1, Mucolipin-3 (Homo sapiens, UniProt Q8TDD5); assay: Dose response cell-based high-throughput screening assay for agonists of the transient receptor potential channel ML3 (TRPML3). [Related pubchem assays: 1526, 1424, 1448 ]; type: functional
T1 sequence (Q8TDD5 whole entry): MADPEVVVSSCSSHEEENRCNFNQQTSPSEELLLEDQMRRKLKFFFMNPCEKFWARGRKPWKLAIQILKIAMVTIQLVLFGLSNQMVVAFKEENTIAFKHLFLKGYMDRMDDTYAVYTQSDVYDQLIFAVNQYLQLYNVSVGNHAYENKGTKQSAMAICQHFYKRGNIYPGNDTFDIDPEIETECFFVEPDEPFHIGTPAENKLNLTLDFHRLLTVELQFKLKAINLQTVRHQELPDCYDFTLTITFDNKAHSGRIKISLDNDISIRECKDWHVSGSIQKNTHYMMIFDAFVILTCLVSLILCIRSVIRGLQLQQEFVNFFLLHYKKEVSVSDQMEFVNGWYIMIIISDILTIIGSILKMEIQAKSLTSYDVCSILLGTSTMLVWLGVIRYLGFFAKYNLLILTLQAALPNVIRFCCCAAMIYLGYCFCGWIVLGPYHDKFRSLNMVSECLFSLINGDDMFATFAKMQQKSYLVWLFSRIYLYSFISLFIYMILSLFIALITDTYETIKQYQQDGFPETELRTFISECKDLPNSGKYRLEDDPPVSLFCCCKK

[7] = Luminescence Cell-Based Dose Confirmation HTS to Identify Inhibitors of Platelet Dense Granule Release. [Related pubchem assays: 1663 (Primary HTS), 1678 (Summary of Project)]; type: functional
[8] = NIH-3T3 fibroblast cytotoxicity, dose response, cytotoxicity control, cell-based, fluorescence, Alamar Blue, secondary assay (AID 2327); type: functional;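 further: NIH-3T3 mouse fibroblasts cultured with fluconazole at 8 µg/mL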
INS1 = assay: INS-1E survival protection against cytokine death – cell-based, luminescence, retest, dose response (AID 449756); type: functional; conditions: Rattus norvegicus;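 further: cell death triggered by IL-1 beta plus TNF-alpha plus IFN-gamma mixture; protective hits raise ATP signal compared with cytokine alone wells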
[9] = target: Luciferin 4-monooxygenase (Photinus pyralis, UniProt P08659); assay: inhibition of purified Photinus pyralis luciferase – biochemical, luminescence, dose response (AID 1891)
[10] = target: Heat shock protein HSP 90-alpha (Homo sapiens, UniProt P07900); assay: Luminescence-based dose response biochemical high throughput screening assay for inhibitors of the Heat Shock Protein 90 (HSP90). [Related pubchem assays: 1831 (Summary AID.), 1846 (Confirmation screen.), 1789 (Primary screen.)]
[11] = fluconazole-exposed Candida albicans growth modulators – fluorescence, retest, confirmation (AID 2467); type: functional, cell-based
Major prion protein = Major prion protein (Homo sapiens, UniProt P04156); type: functional, cell-based
[12] = microbe, parasite or virus in culture; type: functional; conditions: Mycobacterium tuberculosis
[13] = target: E3 ubiquitin-protein ligase Mdm2 (Homo sapiens, UniProt Q00987); assay: MDM2-luc reporter signal enhancers, multi-concentration potency testing, MDM2 ubiquitin-protein ligase inhibitor program, whole-cell format, luminescence detection, 384-well microplate (AID 1394); type: functional;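 further: MDM2 E3 inhibitors raise luminescence so EC50 is for signal enhancement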
Kallikrein-7 = Kallikrein-7 (Homo sapiens, UniProt P49862); assay: Fluorescence Intensity-based biochemical primary high throughput dose response assay to identify activators of kallikrein-7 (K7) zymogen.
[14] = target: Mitogen-activated protein kinase 10 (Homo sapiens, UniProt P53779); assay: Dose response biochemical screening assay for inhibitors of c-Jun N-Terminal Kinase 3 (JNK3). [Related pubchem assays: 746 ]
Estrogen receptor beta [15] = target: T2, Estrogen receptor beta (Homo sapiens, UniProt Q92731);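 further: recombinant ER-beta bound to coactivator SRC1 peptide in presence of estradiol agonist; inhibitors block coactivator peptide binding and lower the FRET signal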
Estrogen receptor beta [16] = target: T2, Estrogen receptor beta; assay: blockers of SRC-3 recruitment to ERβ – biochemical, ELISA, streptavidin-HRP readout, orthogonal assay, confirmation (AID 1060)

## O=C1C=CCC(/C=C/c2ccccc2)O1 (stereo unspecified)
[1]
  EC50: > 120 µM (not active)
[2]
  IC50: 1.31 µM (active)
H4
  EC50: 98.3 µM (active)
[3]
  IC50: > 80 µM (inactive)
[4]
  EC50: > 120 µM (not active)

## O=S(=O)(c1cnc(Cl)c(Br)c1)N1CCc2ccccc21
[2]
  IC50: 4.22 µM (active)
[5]
  AC50: 12.1 µM (inconclusive)
[6]
  IC50: 6.35 µM (active)
Ion channel NompC
  EC50: > 29.9 µM (not active)
Mucolipin-3
  EC50: 7.71 µM (active)

## CCCCOc1ccc(-c2cc(C(=O)NN=C(S)NCC)c3ccccc3n2)cc1
[7]
  EC50: < 0.701 µM (active)
[8]
  EC50: 16.1 µM (inconclusive)
INS1
  AC50: 3.2 µM (active)
[9]
  EC50: 0.516 µM (active)
[10]
  IC50: 2.45 µM (active)
[11]
  EC50: 1.8 µM (active)

## CC1CCC(NC(=O)c2cc3c(s2)CCCC3)CC1 (stereo unspecified)
Major prion protein
  IC50: 4.39 µM (active)
[12]
  CC50: > 40 µM (active)
cells
  IC50: > 138 µM (inactive)

## COCCNc1nc2nonc2nc1N(C)Cc1cccc2cnccc12
[13]
  EC50: 0.22 µM (not active)

## Cc1nn(CCc2nnn[nH]2)c2nc(C(F)(F)F)cc(C(F)(F)F)c12
Kallikrein-7
  EC50: > 69.5 µM (inactive)

## CCOc1cc(C2NC(=O)NC(C)=C2C(=O)OCc2ccccc2)ccc1O (stereo unspecified)
[14]
  IC50: 34.6 µM (not active)

## COc1cc2cc(Br)cc(Br)c2nc1C
Major prion protein
  IC50: 4.51 µM (active)
cells
  IC50: > 138 µM (inactive)

## Cc1ccc(NC(=O)COc2ccc(-n3cnnn3)cc2)cc1C
Estrogen receptor beta [15]
  IC50: > 50 µM (not active)
Estrogen receptor beta [16]
  IC50: < 0.023 µM (not active)

From ChEMBL document CHEMBL1201862, “PubChem BioAssay data set” (2004)
